Values of other authors in patent US20090306023A1, “STABLE ORGANIC PEROXIDE COMPOSITIONS” (priority 2005, published 2009).

Conditions: room temperature

- limit of solubility in water: approximately 0.2%
SMILES: O=C(O)c1ccccc1O [Salicylic acid, 2-hydroxybenzoic acid]
